# From patent US20090275594A1, “3-HYDRAZONE PIPERAZINYL RIFAMYCIN DERIVATIVES USEFUL AS ANTIMICROBIAL AGENTS” (priority 2008, published 2009)
# Key:
# Format in all cases: cell-based
# Conditions in all cases: cation adjusted Mueller-Hinton broth, 35° C., 16-20 hours
# [1] = test system: Enterococcus faecium OC 3312 vancomycin-resistant; assay: In vitro antibacterial activity, microdilution broth MIC (NCCLS M7-A4), strain A
# Description: (§1) Minimum inhibitory concentration (MIC) is an indicator of in vitro antibacterial activity. […] The in vitro antimicrobial activity of representative compounds of the present invention was determined by the microdilution broth method following the test method from the National Committee for Clinical Laboratory Standards (NCCLS). This method is described in the NCCLS Document M7-A4, Vol. 17, No. 2, “Methods for Dilution Antimicrobial Susceptibility Test for Bacteria that Grow Aerobically—Fourth Edition”, which is incorporated herein by reference.
# (§2) In this method two-fold serial dilutions of drug in cation adjusted Mueller-Hinton broth were added to wells in microdilution trays. The test organisms were prepared by adjusting the turbidity of actively growing broth cultures so that the final concentration of test organism after it is added to the wells was approximately 5×10^4 CFU/well. Following inoculation of the microdilution trays, the trays were incubated at 35° C. for 16-20 hours and then read. The amount of growth in the wells containing the test compound was compared with the amount of growth in the growth-control wells (no test compound) used in each tray.
# [2] = test system: Staphylococcus aureus ATCC 29213; assay: In vitro antibacterial activity, microdilution broth MIC (NCCLS M7-A4), strain B
# Description: as §1, §2
# [3] = test system: Methicillin-resistant Staphylococcus aureus OC 3726 COL; assay: In vitro antibacterial activity, microdilution broth MIC (NCCLS M7-A4), strain C
# Description: as §1, §2
# [4] = test system: Staphylococcus aureus OC4172; assay: In vitro antibacterial activity, microdilution broth MIC (NCCLS M7-A4), strain D
# Description: as §1, §2
Structure (SMILES),MIC (μg/mL) A Strain [1],MIC (μg/mL) B Strain [2],MIC (μg/mL) C Strain [3],MIC (μg/mL) D Strain [4]
COC1C=COC2(C)Oc3c(C)c(O)c4c(O)c(c(C=NN5CCN(Cc6cc(CO)no6)CC5)c(O)c4c3C2=O)NC(=O)C(C)=CC=CC(C)C(O)C(C)C(O)C(C)C(OC(C)=O)C1C (centres unmarked) [Compound 11],0.25 µg/mL,0.06 µg/mL,≦0.03 μg/mL,≦0.03 μg/mL
COC1C=COC2(C)Oc3c(C)c(O)c4c(O)c(c(C=NN5CCN(Cc6cc(CN(C)C)no6)CC5)c(O)c4c3C2=O)NC(=O)C(C)=CC=CC(C)C(O)C(C)C(O)C(C)C(OC(C)=O)C1C (centres unmarked) [Compound 12],0.12 µg/mL,0.06 µg/mL,≦0.03 μg/mL,≦0.03 μg/mL
COC1C=COC2(C)Oc3c(C)c(O)c4c(O)c(c(C=NN5CCN(Cc6cc(-c7ccccn7)no6)CC5)c(O)c4c3C2=O)NC(=O)C(C)=CC=CC(C)C(O)C(C)C(O)C(C)C(OC(C)=O)C1C (centres unmarked) [Compound 13],0.06 µg/mL,≦0.03 μg/mL,≦0.03 μg/mL,≦0.03 μg/mL
COC1C=COC2(C)Oc3c(C)c(O)c4c(O)c(c(C=NN5CCN(Cc6cc(-c7cccnc7)no6)CC5)c(O)c4c3C2=O)NC(=O)C(C)=CC=CC(C)C(O)C(C)C(O)C(C)C(OC(C)=O)C1C (centres unmarked) [Compound 14],0.06 µg/mL,≦0.03 μg/mL,≦0.03 μg/mL,≦0.03 μg/mL
COC1C=COC2(C)Oc3c(C)c(O)c4c(O)c(c(C=NN5CCN(Cc6cc(-c7ccncc7)no6)CC5)c(O)c4c3C2=O)NC(=O)C(C)=CC=CC(C)C(O)C(C)C(O)C(C)C(OC(C)=O)C1C (centres unmarked) [Compound 15],0.06 µg/mL,≦0.03 μg/mL,≦0.03 μg/mL,≦0.03 μg/mL
COC1C=COC2(C)Oc3c(C)c(O)c4c(O)c(c(C=NN5CCN(Cc6cc(-c7ccc(NC(C)=O)cc7)no6)CC5)c(O)c4c3C2=O)NC(=O)C(C)=CC=CC(C)C(O)C(C)C(O)C(C)C(OC(C)=O)C1C (centres unmarked) [Compound 16],0.12 µg/mL,0.06 µg/mL,0.06 µg/mL,≦0.03 μg/mL
COC1C=COC2(C)Oc3c(C)c(O)c4c(O)c(c(C=NN5CCN(Cc6cc(-c7ccc(OCCCN(C)C)cc7)no6)CC5)c(O)c4c3C2=O)NC(=O)C(C)=CC=CC(C)C(O)C(C)C(O)C(C)C(OC(C)=O)C1C (centres unmarked) [Compound 17],0.25 µg/mL,0.12 µg/mL,0.12 µg/mL,0.12 µg/mL
COC(=O)c1c(-c2ccc(Cl)cc2)noc1CN1CCN(N=Cc2c3c(O)c4c(O)c(C)c5c(c4c2O)C(=O)C(C)(OC=CC(OC)C(C)C(OC(C)=O)C(C)C(O)C(C)C(O)C(C)C=CC=C(C)C(=O)N3)O5)CC1 (centres unmarked) [Compound 18],1 µg/mL,1 µg/mL,0.5 µg/mL,0.5 µg/mL
COC1C=COC2(C)Oc3c(C)c(O)c4c(O)c(c(C=NN5CCN(Cc6onc(-c7ccc(Cl)cc7)c6C(=O)O)CC5)c(O)c4c3C2=O)NC(=O)C(C)=CC=CC(C)C(O)C(C)C(O)C(C)C(OC(C)=O)C1C (centres unmarked) [Compound 19],4 µg/mL,1 µg/mL,0.5 µg/mL,0.5 µg/mL
COC1C=COC2(C)Oc3c(C)c(O)c4c(O)c(c(C=NN5CCN(Cc6ccc(-c7ccccc7)s6)CC5)c(O)c4c3C2=O)NC(=O)C(C)=CC=CC(C)C(O)C(C)C(O)C(C)C(OC(C)=O)C1C (centres unmarked) [Compound 20],2 µg/mL,2 µg/mL,1 µg/mL,2 µg/mL
COC1C=COC2(C)Oc3c(C)c(O)c4c(O)c(c(C=NN5CCN(Cc6ccc(-c7ccc(Cl)cc7)s6)CC5)c(O)c4c3C2=O)NC(=O)C(C)=CC=CC(C)C(O)C(C)C(O)C(C)C(OC(C)=O)C1C (centres unmarked) [Compound 21],2 µg/mL,2 µg/mL,2 µg/mL,2 µg/mL
